# Test results from patent US11583494B2, “Pharmaceutical composition for nasal administration” (MEDILABO RFP, INC., priority 2017, dated 2023).
# Assays:
# [1] = Impaired liver function: hepatic enzymes AST (GOT) and ALT (GPT) in serum; type: in vivo, mouse; details: 1 month
# Description: (§1) Male APP OSK mice (Tomiyama et al. J Neurosci. 2010; 30:4845-56) aged 11 months were prepared. APP OSK mice weigh about 30 g. The 60 APP OSK mice were classified into five groups A to E, each containing 12 mice. Separately, 12 wild-type mice (non-Tg littermate) of the same age in month were prepared.
# (§2) Administration was performed without anesthesia using a rodent oral sonte for oral administration, a Pipetman (white tip) for nasal administration, and an injection syringe for subcutaneous administration.
# Blood was sampled from mice after end of the behavior test, and serum was separated from the blood to prepare a serum sample. Hepatic enzymes AST (GOT) and ALT (GPT) in the serum sample were measured, and the degree of impaired liver function by rifampicin was compared.
# tau = test: Formation of oligomers in vitro, tau; type: biochemical
# Aβ = biological target: T1, Aβ (Homo sapiens, UniProt P05067); test: Formation of oligomers in vitro, Aβ; type: biochemical
# T1 construct: Rifampicins have the action of suppressing formation of oligomers of amyloid β, tau, and α synuclein
# FTD model mouse = test: Oral administration to FTD model mouse in which tau accumulates; type: in vivo
# AD model mouse = test: Oral administration to AD model mouse in which Aβ accumulates; type: in vivo
# α synuclein = α synuclein (Homo sapiens, UniProt P37840); test: Formation of oligomers in vitro, α synuclein; type: biochemical
# Aβ oligomers = biological target: T2, Aβ oligomers (Homo sapiens, UniProt P05067, DEL693-693); type: in vivo, mouse
# T2 construct: from tissue; host or cells: brain (hippocampus) of APP OSK transgenic mice
# Description: as §1, §2
# According to the procedure described in Umeda et al. Brain 2016; 139:1568-86, Aβ oligomers (Aβ oligomers are considered to cause phosphorylation of tau and reduction in synaptophysin), synaptophysin (marker protein of synapse), and phosphorylated tau were stained by immunohistological staining. For staining Aβ oligomers, 11A1 antibody (available from Immune-Biological laboratories Co., Ltd.) was used, and for staining synaptophysin, SVP-38 antibody (available from Sigma) was used. Mouse monoclonal PHF-1 antibody (anti p-Ser396/404-tau antibody, provided by Dr. Peter Davies, Albert Einstein College of Medicine) was used for staining phosphorylated tau. After staining, Aβ oligomers, synaptophysin, and phosphorylated tau were quantified by using NIH image-J.
# APP OSK mouse = test: Behavior test: space reference memory of mouse, Morris water maze; type: in vivo; details: 1 month
# Description: as §1, §2
# The behavior test was performed by measuring space reference memory of mouse using a Morris water maze according to the method of Umeda et al. Brain 2016; 139:1568-86.
compound,measurement,setting,value
"CO[C@H]1/C=C/O[C@@]2(C)Oc3c(C)c(O)c4c(O)c(c(/C=N/N5CCN(C)CC5)c(O)c4c3C2=O)NC(=O)/C(C)=C\C=C\[C@H](C)[C@H](O)[C@@H](C)[C@@H](O)[C@@H](C)[C@H](OC(C)=O)[C@@H]1C [Rifampicin, 3-(4-methylpiperazinyliminomethyl)rifamycin SV]",Elevation of AST in comparison with CMC-administered APP OSK mouse,"[1]; Example 2: nasal, 0.05 mg/day",Slight elevation
same,Change of ALT,"[1]; any administration method (oral, nasal, subcutaneous)",no significant change was observed
same,Formation of oligomers of tau,tau,suppresses formation of oligomers
same,Formation of oligomers of Aβ,Aβ,suppresses formation of oligomers
same,Cognitive function of mouse,FTD model mouse,recovery of the cognitive function
same,Cognitive function of mouse,AD model mouse,recovery of the cognitive function
same,Formation of oligomers of α synuclein,α synuclein,suppresses formation of oligomers
same,Effect of reducing Aβ oligomers in comparison for the same dosage (FIG. 3),"Aβ oligomers; Example 1: nasal, […], versus oral and subcutaneous […]",highest
same,Quantification of Aβ oligomers (FIG. 3),"Aβ oligomers; any of oral (Comparative Example 1), nasal (Example 1, Example 2), subcutaneous (Reference Example 3)",reduced to at least the same level as that in wild-type mouse
same,Ameliorating effect on disturbance of memory (FIG. 1),"APP OSK mouse; Example 2: nasal, 0.05 mg/day",reached to the same level as in wild-type mouse
same,"Ameliorating effect on disturbance of memory compared with oral administration (Comparative Example 1, […])","APP OSK mouse; Example 2: nasal, dosage one-fifth (0.05 mg/day)",higher than the case of oral administration
same,Amelioration of disturbance of memory (FIG. 1),"APP OSK mouse; any of oral, nasal and subcutaneous administration, APP OSK mice",amelioration of disturbance of memory of APP OSK mouse was confirmed
